# Publication PMC8868586, “Comparison of Various Solvent Extracts and Major Bioactive Components from Unsalt-Fried and Salt-Fried Rhizomes of Anemarrhena asphodeloides for Antioxidant, Anti-α-Glucosidase, and Anti-Acetylcholinesterase Activities” (Antioxidants, 2022)
# Read-outs that look alike come from different tables or passages of the source.
# Assays:
# [1] = Ferric-reducing antioxidant power (FRAP) assay
# Experimental: The FRAP assay was determined by the reference method with a slight modification. The working solution was mixed with acetate buffer (pH 3.6), ferric chloride solution (20 mM), and TPTZ solution (10 mM TPTZ in 40 mM HCl) in a proportion of 10:1:1, respectively, and freshly prepared before being used. A total of 900 μL of the working solution was warmed to 37 °C and then mixed with 100 μL of the diluted sample, blank or standard, in a microcentrifuge tube. The tubes were vortexed in a dry bath at 37 °C for 40 min. The absorbance was measured at 593 nm. The standard curve was linear between 0 and 100 mM Trolox. Results are expressed in mM TE/g dry weight. Additional dilution was needed if the FRAP value measured was over the linear range of the standard curve.
# (§1) ABTS and DPPH assays have been widely utilized to assess the antioxidant activities of natural components. Both assays are mostly connected with the proton radical scavenging or hydrogen donating capacities of the target compounds [29]. Superoxide radical scavenging activity is measured by the PMS/NADH–NBT system. Superoxide anion radicals generated from dissolved oxygen by PMS/NADH coupling reaction reduce NBT. The decrease in absorbance at 560 nm with antioxidants indicates a reduction in superoxide anion radicals in the reaction mixture. The ferric-reducing antioxidant power (FRAP) measures the antioxidant potential of each extract through the reduction of ferric iron (Fe^3+) complex to ferrous iron (Fe^2+) complex by antioxidants present in the samples [31].
# [2] = target: T1, acetylcholinesterase (AChE) (Homo sapiens, UniProt P22303); assay: biochemical; conditions: pure compounds; read-out: AchE Inhibitory Assay IC50 (converted)
# T1 construct: purchased Sigma-Aldrich
# T1 sequence (P22303 32-614): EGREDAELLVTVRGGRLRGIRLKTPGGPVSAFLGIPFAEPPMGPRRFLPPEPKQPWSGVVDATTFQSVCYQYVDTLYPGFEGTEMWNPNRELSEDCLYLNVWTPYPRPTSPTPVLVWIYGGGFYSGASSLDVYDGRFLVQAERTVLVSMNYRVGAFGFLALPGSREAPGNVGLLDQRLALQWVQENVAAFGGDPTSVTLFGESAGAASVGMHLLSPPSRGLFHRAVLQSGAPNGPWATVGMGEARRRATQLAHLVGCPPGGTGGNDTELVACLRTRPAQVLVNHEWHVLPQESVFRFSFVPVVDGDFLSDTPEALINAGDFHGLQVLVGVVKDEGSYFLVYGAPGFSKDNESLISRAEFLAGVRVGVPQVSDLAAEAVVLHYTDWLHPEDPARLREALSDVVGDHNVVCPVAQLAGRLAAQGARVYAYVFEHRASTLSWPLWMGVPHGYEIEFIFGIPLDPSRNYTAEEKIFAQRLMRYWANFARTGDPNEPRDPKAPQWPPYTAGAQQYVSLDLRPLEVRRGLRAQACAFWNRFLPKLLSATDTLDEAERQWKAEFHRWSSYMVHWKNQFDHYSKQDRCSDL
# Experimental: The inhibition assay of acetylcholinesterase was conducted using the conditions previously reported with slight modifications. Briefly, 0.1 M sodium phosphate buffer (pH 8.0, 140 μL), test compound solution (20 μL), enzyme solution (15 μL of AChE 0.2 units/mL solution), and DTNB (15 mM, 10 μL) were mixed and incubated for 10 min at room temperature. Substrate (10 μL of AchI 15 mM solution) was then added and the reaction was initiated.
# α-glucosidase = target: T2, α-glucosidase (Saccharomyces cerevisiae, UniProt P53341); assay: α-Glucosidase inhibitory activity assay; type: biochemical
# T2 construct: purchased Sigma-Aldrich
# T2 sequence (P53341 whole entry): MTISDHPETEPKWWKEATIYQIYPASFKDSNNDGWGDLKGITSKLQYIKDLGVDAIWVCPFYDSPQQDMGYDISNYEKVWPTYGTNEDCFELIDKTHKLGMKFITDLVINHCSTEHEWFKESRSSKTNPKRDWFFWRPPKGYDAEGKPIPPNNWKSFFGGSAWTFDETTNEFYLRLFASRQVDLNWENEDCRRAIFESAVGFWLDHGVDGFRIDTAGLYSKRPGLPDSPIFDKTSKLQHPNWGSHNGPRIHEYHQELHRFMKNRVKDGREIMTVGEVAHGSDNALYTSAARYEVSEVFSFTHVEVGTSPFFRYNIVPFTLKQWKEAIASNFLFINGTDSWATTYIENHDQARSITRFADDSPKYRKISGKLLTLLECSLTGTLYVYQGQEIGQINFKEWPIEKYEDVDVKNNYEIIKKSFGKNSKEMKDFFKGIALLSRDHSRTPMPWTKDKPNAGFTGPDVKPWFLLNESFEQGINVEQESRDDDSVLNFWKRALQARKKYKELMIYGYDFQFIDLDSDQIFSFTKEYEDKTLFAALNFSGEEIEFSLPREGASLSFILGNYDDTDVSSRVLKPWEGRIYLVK
# Experimental: The inhibition assay of α-glucosidase was conducted using the procedure previously reported.
# [3] = ABTS radical scavenging assay
# Experimental: ABTS radical scavenging activity of each extract was determined as previously described.
# as §1
# [4] = Superoxide radical scavenging assay (PMS/NADH-NBT system); conditions: isolated components
# Experimental: Superoxide anion radical (O2^•–) scavenging activity was measured using the previously described method.
# as §1
# [5] = DPPH radical scavenging assay
# Experimental: The DPPH radical scavenging assay was measured by the reference method.
# as §1
# [6] = Trolox equivalents per gram, isolated components
# [7] = pure compounds, read-out: α-Glucosidase IC50 (converted)
# [8] = solvent extracts of AA (non-salt-fried) series
# [9] = solvent extracts of salt-fried AA series
Compound,"FRAP (TE) [1, 6] [mM/g]",IC50 [2] [µM],IC50 (α-glucosidase; [7]) [µM],ABTS IC50 ([3]; isolated components) [µg/mL],Superoxide IC50 [4] [µg/mL],DPPH IC50 ([5]; isolated components) [µg/mL],"FRAP (TE) ([1]; Trolox equivalents per gram of extract, AA (non-salt-fried) series) [mM/g]","FRAP (TE) ([1]; Trolox equivalents per gram of extract, salt-fried AA series) [mM/g]","ABTS IC50 [3, 8] [µg/mL]","ABTS IC50 [3, 9] [µg/mL]","DPPH IC50 [5, 8] [µg/mL]","DPPH IC50 [5, 9] [µg/mL]",IC50 (α-glucosidase) [µM],potency against α-glucosidase relative to acarbose (α-glucosidase; fold stronger than acarbose)
"C[C@H]1CC[C@@]2(OC1)O[C@H]1C[C@H]3[C@@H]4CC[C@@H]5C[C@@H](O[C@@H]6O[C@H](CO)[C@H](O)[C@H](O)[C@H]6O[C@@H]6O[C@H](CO)[C@@H](O)[C@H](O)[C@H]6O)CC[C@]5(C)[C@H]4CC[C@]3(C)[C@H]1[C@@H]2C [Timosaponin A-III, timosaponin A-III]",19.5 ± 3.9,179,97.9,>200,>200,>200,–,–,–,–,–,–,–,–
"Cc1cc(C(C)(C)C)c(O)c(C(C)(C)C)c1 [BHT, Butylated hydroxytoluene, reference compound]",3963.9 ± 104.0,–,–,15.4 ± 0.9,–,27.2 ± 1.9,4297.0 ± 48.4,4216.1 ± 66.5,20.6 ± 0.2,19.6 ± 0.4,35.5 ± 0.6,39.7 ± 1.4,–,–
"O=c1c2cc(O[C@@H]3O[C@H](CO)[C@@H](O)[C@H](O)[C@H]3O)c(O)cc2oc2cc(O)c([C@@H]3O[C@H](CO)[C@@H](O)[C@H](O)[C@H]3O)c(O)c12 [Neomangiferin, neomangiferin]",83.1 ± 5.3,121,–,81.9 ± 4.6,>200,>200,–,–,–,–,–,–,> 684,–
"O=c1c2cc(O)c(O)cc2oc2c([C@@H]3O[C@H](CO)[C@@H](O)[C@H](O)[C@H]3O)c(O)cc(O)c12 [Isomangiferin, isomangiferin]",6359.9 ± 176.8,227,–,5.6 ± 0.4,155.3 ± 13.8,16.7 ± 1.1,–,–,–,–,–,–,434,–
"O=c1c2cc(O)c(O)cc2oc2cc(O)c([C@@H]3O[C@H](CO)[C@@H](O)[C@H](O)[C@H]3O)c(O)c12 [Mangiferin, mangiferin]",9371.4 ± 183.9,161,146,3.7 ± 0.2,53.8 ± 2.4,5.4 ± 0.3,–,–,–,–,–,–,–,about five-fold
